Tests used:
[1] = system: NPC cell lines (CNE2, HONE1, and HK-1) and CDDP resistance cell line (CNE2/CDDP); experiment: MTT cytotoxicity, summary over NPC cell lines and CDDP resistance cell line; type: cell-based; conditions: range over CNE2, HONE1, HK-1 and CNE2/CDDP, read-out: IC50, anti-proliferative effects
Experimental: (§1) Prior to determining the combined inhibitory effects against NPC CDDP-resistance cells, the cytotoxicity effects of these 8 derivatives were evaluated against three NPC cell lines (CNE2, HONE1, and HK-1) and CDDP resistance cell line (CNE2/CDDP) by using MTT (3-(4,5-dimethyl-2-thiazolyl)-2,5-diphenyl-2-H-tetrazolium bromide) assays. […] Moreover, a liver normal cell LO2 was involved to evaluate the selectivity of these 8 compounds by using MTT assays.
(§2) Nasopharyngeal carcinoma cells (CNE2, HONE1, and CNE2/CDDP) were purchased from Shanghai Aulu Biological Technologh Co., Ltd. (Shanghai, China). HK-1 cell was purchased from Shanghai Shunran Biological Technologh Co., Ltd. CNE2, HONE1, and HK-1 were cultured in DMEM medium supplemented with 10% fetal bovine serum, 1% penicillin-streptomycin. CDDP-resistant NPC cell CNE2/CDDP was cultured in DMEM medium supplemented with CDDP to sustain its drug resistance. Cell viability was detected using the MTT assay. All the 8 derivatives were resolved with DMSO to make a storage solution at 1 M, and CDDP was resolved with phosphate buffer saline (PBS) to make a storage solution at 100 mM. […] Then, MTT was removed and 150 µL DMSO was added into each well and the absorption values were measured at 490 nm using a SpectraMAX M5plate reader (Silicon Valley, CA, USA).

CNE2/CDDP cells [2] = experiment: Synergistic inhibitory effect with CDDP, combination index (Chou-Talalay); type: cell-based; conditions: treated simultaneously with 3f (20, 40, 60 µM) and CDDP (5, 10, 15 µM), 72 h; CI < 1 synergism
Experimental: To determine whether compound 3f display synergistic inhibitory effects with CDDP against CNE2/CDDP cells, an MTT assay was performed. Cells were co-treated with compound 3f and CDDP or treated with CDDP or 3f alone. There are 9 groups of the combination between 3f and CDDP (Table 2). Inhibition rates were calculated, and the fraction affected (Fa) and CI (Combination Index) were generated for each group, and dose–effect curves were obtained. The CI greater than, equal to, and less than 1.0 indicate antagonistic, additive and synergistic effects, respectively.
The combination index (CI) was evaluated using Calcusyn 2.0 based on the Chou-Talalay method. Data from cell viability assays were applied to the CI calculation.
Figure 2 Synergistic inhibitory effects of compound 3f with CDDP in CNE2/CDDP cells. CNE2/CDDP cells were cultured with 3f and/or CDDP. After 72 h, 3-(4,5-dimethyl-2-thiazolyl)-2,5-diphenyl-2-H-tetrazolium bromide (MTT) was added. Two hours later, optical density (OD) was detected, and the inhibition rate was quantified. Combination Index (CI) plots were then generated using the Chou-Talay method and Calcusyn software.

[3] = Serum ALT, AST and Cr by ELISA; type: in vivo, BALB/C nude mice; conditions: groups: vehicle, CDDP 5 mg/kg, 3f 40 mg/kg, combination; ELISA at sacrifice
Experimental: (§3) Finally, to evaluate the combination inhibitory effects of compound 3f with CDDP in vivo, the subcutaneous tumor-bearing model was applied by using strain of BALB/C nude mice. In detail, 32 BALB/C nude mice without tumor were purchased and CNE2/CDDP cells (2 × 10^7) were subcutaneously injected into the right flank of each mouse to make tumor burden. Then, the 32 mice with tumor burden were divided into four groups which receive vehicle, CDDP (5 mg/kg), compound 3f (40 mg/kg), and CDDP with 3f combination treatments (5mg/kg for CDDP and 40 mg/kg for 3f), respectively, through intraperitoneal injection with two times a week for one month. […] The adverse effects of treatment were also tested by detecting serum concentration of Alanine Aminotransferase (ALT), Aspartate aminotransferase (AST), and creatinine (Cr).
Mice were sacked at the time of the animal sacrifice and blood was collected to detect ALT, AST, and Cr. Immediately, serum was separated by centrifugation at 2000 g, and ALT, Cr, and AST were determined using ELISA kits (Shanghai Enzyme-linked Biotechnology Co., Ltd., catalog: ml063179, ml058577, and ml057581) according to the manufacture instructions. The absorbance of the plates was read at 450 nm using an automated microplate reader (Bio-Tek, Winooski, VT, USA).

CNE2/CDDP cells [4] = experiment: Apoptosis assay (Annexin V-FITC/PI, FACS); type: cell-based; conditions: 24 h, mean ± SD; for cell apoptosis, treatment alone: CDDP 4 µg/mL or 3f 40 µM alone, three independent experiments
Experimental: Subsequently, to further verify whether the synergistic effects of compound 3f with CDDP involved cell death, an apoptosis assay was conducted. CNE2/CDDP cells were co-treated with CDDP and compound 3f, or CDDP and 3f alone for 24 h. Then, cells were harvested for staining by using an apoptosis kit, following FACS detection (Figure 3a). Then, the data from three independent experiments were analyzed and the results were shown in the form of histogram (Figure 3b).
CNE2/CDDP cells (3 × 10^5) were seeded into a 6-well plate for each well. Twenty-four hours later, medium was removed and cells were treated with different compounds for […]. Then, cells were harvested, washed with cold PBS, and stained with Annexin V-FITC and PI for 15 min in dark. Finally, samples were analyzed by flow cytometer.
Figure 3 Compound 3f (40 µM) increased apoptosis rate of CDDP (4 µg/mL) in CNE2/CDDP cells. (a), representative apoptosis detection by FACS. (b), three independent experiments of apoptosis assays were analyzed and p-value was calculated. Data are represented as mean ± SD. Bar means SD value * p < 0.05, compared with CDDP; # p < 0.05, compared with 3f.

HK-1 = experiment: MTT cytotoxicity assay, HK-1; type: cell-based; conditions: mean ± SD
Experimental: as §1
(§4) Nasopharyngeal carcinoma cells (CNE2, HONE1, and CNE2/CDDP) were purchased from Shanghai Aulu Biological Technologh Co., Ltd. (Shanghai, China). HK-1 cell was purchased from Shanghai Shunran Biological Technologh Co., Ltd. CNE2, HONE1, and HK-1 were cultured in DMEM medium supplemented with 10% fetal bovine serum, 1% penicillin-streptomycin. CDDP-resistant NPC cell CNE2/CDDP was cultured in DMEM medium supplemented with CDDP to sustain its drug resistance. Cell viability was detected using the MTT assay. All the 8 derivatives were resolved with DMSO to make a storage solution at 1 M, and CDDP was resolved with phosphate buffer saline (PBS) to make a storage solution at 100 mM. The maximum concentrations of these 8 derivatives and CDDP used in MTT assays were set as 1 mM and 100 µM diluted with DMEM medium, respectively. Medium with 0.1% DMSO was set as control. To begin, an initial MTT assay was conducted to evaluate the cytotoxicity of 3a~3h with a dose range of 50, 100, 200, 400, and 800 µM. Then, a more precise dose range was set to calculate the IC50 of each compound (For 3a~3e: 50, 100, 200, 400, 600, and 800 µM; for 3f~3h: 12.5, 25, 50, 100, 200, and 400 µM). Then, 5000 cells were seeded in a 96-well plate for each well and treated with respective compounds at different concentrations for 72 h following additional treatment with MTT for 2~3 h. Then, MTT was removed and 150 µL DMSO was added into each well and the absorption values were measured at 490 nm using a SpectraMAX M5plate reader (Silicon Valley, CA, USA).

LO2 = experiment: MTT cytotoxicity assay, LO2 normal liver cell; type: cell-based; conditions: mean ± SD
Experimental: as §1, §4

CNE2/CDDP cells [5] = experiment: Subcutaneous tumor-bearing model, CNE2/CDDP; type: in vivo
Experimental: as §3
The in vivo studies were conducted according to protocols approved by the Animal Ethics Committee of Guangxi University (GXU2018-019). The subcutaneous tumor-bearing model using BALB/C nude mice was applied to assess the in vivo CDDP-resistant reversal activity of compound 3f. In brief, 32 BALB/C nude mice without tumor were purchased and CNE2/CDDP cells (2 × 10^7) were subcutaneously injected into the right flank of each mouse to make tumor burden. Then, the 32 mice with tumor burden were divided into four groups which receive vehicle, CDDP (5 mg/kg), compound 3f (40 mg/kg), and CDDP with 3f combination treatments (5 mg/kg for CDDP and 40 mg/kg for 3f) (n = 8 for each group; twice a week for a month). Drugs were resolved with sterile saline–ethanol–DMSO (89:10:1, v/v/v). Sterile saline–ethanol–DMSO (89:10:1, v/v/v) was used as vehicle. Tumor volume was calculated according to the formula: V = 0.5 × L × W^2 (L: the long diameter of the tumor; W: the short diameter of the tumor). At the time of the animal sacrifice, tumors were excised and weighted.

CNE2/CDDP cells [6] = experiment: Combined inhibitory effect with CDDP, MTT; type: cell-based; conditions: co-treated with CDDP (5 µM) and compound at IC10, MTT
Experimental: Compounds regularly show synergy effects with a relatively low dosage range (IC10 to IC30). In order to preliminarily verify whether 8 compounds could increase cell sensitivity to CDDP, CNE2/CDDP cells were co-treated with CDDP (5 µM) and each compound (IC10), respectively. The cytotoxicity was evaluated by using MTT assays. […] Thus, compound 3f was selected for further experiments.
as §2, with “mM. The maximum concentrations of these 8 derivatives and CDDP used in MTT assays were set as 1 mM and 100 µM diluted with DMEM medium, respectively.” for “mM.”, “USA). […]” for “USA).”

CNE2/CDDP = experiment: MTT cytotoxicity assay, CNE2/CDDP; type: cell-based; conditions: cisplatin resistant cell line, mean ± SD
Experimental: as §1, §4

CNE2 = experiment: MTT cytotoxicity assay, CNE2; type: cell-based; conditions: mean ± SD
Experimental: as §1, §4

HONE1 = experiment: MTT cytotoxicity assay, HONE1; type: cell-based; conditions: mean ± SD
Experimental: as §1, §4

[7] = system: leukemia, breast, and bladder cancer cells; conditions: cited from earlier work

melting point [°C] | Structure (SMILES) | IC50 [1] [µM] | cell apoptosis, treatment alone (CNE2/CDDP cells [4]) | IC50 (HK-1; HK-1, 72 h) [µM] | IC50 (LO2; Homo sapiens, L02, 72 h) [µM] | IC50 (CNE2/CDDP; Homo sapiens, CNE-2, 72 h) [µM] | IC50 (CNE2; Homo sapiens, CNE-2, 72 h) [µM] | IC50 (HONE1; Homo sapiens, HONE1, 72 h) [µM] | further results
– | S=C1C(=Cc2ccc(Cl)s2)CCC2C3CCCN4CCCC(CN12)C34 (centres unmarked) [3f, 14-((5-chlorothiophen-2-yl)methylene)thiomatrine] | 30 to 100 | 9.97 ± 1.36 | 51.3 ± 3.5 | 72 ± 5.8 | 91.4 ± 8.8 | 35.7 ± 3.4 | – | CI (Combination Index) (CNE2/CDDP cells [2]): less than 1; serum concentrations of ALT, AST, and Cr [3]: no significant changes; cell apoptosis, combined treatment with CDDP (CNE2/CDDP cells [4]; CDDP (4 µg/mL) and 3f (40 µM) combined): 15.53 ± 1.61; tumor volume and weight, combined treatment with CDDP (CNE2/CDDP cells [5]; CDDP 5 mg/kg + 3f 40 mg/kg, intraperitoneal, twice a week for one month, compared with CDDP or 3f alone): significantly reduced tumor volume and weight; toxicity in vivo (CNE2/CDDP cells [5]; dose of 40 mg/kg, reflected by mouse body weight and ALT, AST, Cr): no obvious toxicity; body weight of mice (CNE2/CDDP cells [5]; groups: vehicle, CDDP 5 mg/kg, 3f 40 mg/kg, combination, i.p. twice a week for one month): no significant difference in body weight; increase of the inhibitory effects of CDDP (CNE2/CDDP cells [6]): could increase the inhibitory effects of CDDP
245.7 to 246.3 | S=C1/C(=C/c2cc(Br)cs2)CC[C@@H]2[C@H]3CCCN4CCC[C@@H](CN12)[C@@H]34 [3g, 14-((4-bromothiophen-2-yl)methylene)thiomatrine] | – | – | 90.7 ± 6.6 | 68 ± 5.1 | 206 ± 11.7 | 58.3 ± 2.9 | 71.5 ± 4.2 | –
239.9 to 240.6 | S=C1/C(=C/c2ccc(Br)s2)CC[C@@H]2[C@H]3CCCN4CCC[C@@H](CN12)[C@@H]34 [3h, 14-((5-bromothiophen-2-yl)methylene)thiomatrine] | – | – | 103 ± 7.8 | 92 ± 8.6 | 178 ± 15.8 | 76.2 ± 4.5 | 89.7 ± 6.2 | –
– | [NH2][Pt]([NH2])([Cl])[Cl] [CDDP, Cisplatin, reference compound] | – | 7.58 ± 0.82 | – | – | – | – | – | IC50 (HONE1; 72 h): 5.23 ± 0.37 µM; IC50 (HK-1; 72 h): 6.73 ± 0.42 µM; IC50 (LO2; 72 h): 6.33 ± 0.56 µM; IC50 (CNE2/CDDP; 72 h): 29.5 ± 3.12 µM; IC50 (CNE2; 72 h): 3.77 ± 0.26 µM
– | O=C1CCC[C@@H]2[C@H]3CCCN4CCC[C@@H](CN12)[C@@H]34 [Matrine] | > 1000 | – | > 1000 | > 1000 | > 1000 | > 1000 | > 1000 | dosage reversing drug resistance in vitro [7]: more than 1 mM

Reference: publication PMC7830115, “Design, Synthesis, Molecular Docking, and Tumor Resistance Reversal Activity Evaluation of Matrine Derivative with Thiophene Structure” (Molecules, 2021)
